# In publication PMC10354055, “An optimized Nurr1 agonist provides disease-modifying effects in Parkinson’s disease models” (Nature Communications, 2023):
# Values joined by “and” are separate entries in the source; they are usually repeats but may differ in a detail not shown here. Equal entries are not always repeated.
# What was measured:
# Nurr1-LBD = Nurr1-LBD (Homo sapiens, UniProt P43354); assay: [3H]-CQ radioligand competition binding assay; settings: Fig. 1h
# Protocol: Saturation and competition assays were performed as previously described. For saturation assay, 0.2 µM of Nurr1-LBD and 125-10,000 nM of [^3H]-CQ were incubated in binding buffer (20 mM sodium acetate buffer (pH 5.2)) at 4 °C overnight. […] Assay mixtures were applied to GF/B filters (Brandel Inc.) to capture Nurr1-LBD bounded ligands. […] All graphs and IC50 values were generated using the non-linear regression program in GraphPad Prism version 8.0.2.
# N27-A cells = assay: Cell viability, MTT reduction, MPP+-treated N27-A cells; type: cell-based, rat; settings: Fig. 2a, CQ 100 µM, 4A7C-301 1 µM
# MN9D cells = assay: Cytotoxicity, LDH release, MPP+-treated MN9D cells; type: cell-based, mouse
# Protocol: Cells were transfected with Nurr1 subcloned into pcDNA3.1 vector[23] for Nurr1 overexpression (OE). […] Nurr1 OE or KD by transfection was analyzed by Western blot.
# Cellular oxidative stress was detected using the DCFDA Cellular ROS Assay Kit (Abcam) according to the manufacturer’s protocol. Briefly, cells seeded in black clear bottom 96 well plate were stained with DCFDA solution (20 µM) for 45 min at 37 °C. […] Cytotoxicity was determined by measuring lactate dehydrogenase (LDH) release into the culture medium using a LDH cytotoxicity detection kit (Roche)[33]. Absorbance was measured at 490 nm with a microplate reader and cytotoxicity was calculated as a percentage (%) relative to 1% TritonX-100 control. Cell viability was determined using 3-(4,5-dimethylthiazol-2-yl)-2,5-diphenyltetrazolium bromide (MTT) as previously described. Briefly, cells were incubated with 5 mg/ml of MTT (Sigma-Aldrich) solution for 3.5 h at 37 °C. MTT formazan crystals were dissolved in 10 times the volume of MTT solvent (4 mM HCl and 0.1% Nonidet P-40 in isopropanol) and the absorbance from the generated blue formazan was measured at 570 nm after 15 min incubation at room temperature. Cell viability was calculated as a percentage (%) of MTT reduction relative to vehicle control.
# Nurr1 protein = Nurr1 protein level, Western blot, MN9D cells with MPP+ or αSyn overexpression; type: cell-based, mouse; settings: against MPP+ and αSynWT overexpression
# Protocol: Experiments were confirmed by duplicate measurements of the same sample. Quantification of immunoreactive bands was performed using ImageJ software (NIH, Bethesda, MD, USA) and expressed as a relative ratio against β-actin.
# Lenti-GFP, -αSyn^WT, and -αSyn^A53T viruses were generated separately by co-transfecting each shuttle plasmid with lentivirus packaging plasmids into HEK293T cells using lipofectamine 2000 (Invitrogen). Briefly, 2 μg each FUW inducible shuttle plasmid, 2 μg FUW-rtTA, 2 μg psPax2 and 1.5 μg MD2.G were mixed and transfected into HEK293T cells. After 48 h, viral supernatants were collected and centrifuged at 1000g for 10 min, and subsequently filtered through a 0.45 μm filter. Lentiviruses were transduced into MN9D cells with 8 μg/ml of polybrene and the viral supernatant was removed and replaced with fresh medium a day after transduction.
# MPTP-induced male mice [1] = assay: Rotarod, sub-chronic MPTP-induced PD model mice; type: in vivo, mouse; settings: Figure 4b; MPTP-induced mice; individual animal values
# Protocol: (§1) MPTP (Sigma-Aldrich) was intraperitoneally (i.p.) injected (30 mg/kg) for 5 days (Day 1-5). […] To test dyskinetic involuntary behavior, an L-DOPA injected group was included, which received 50 mg/kg of L-DOPA and 15 mg/kg of benserazide (Sigma-Aldrich) (i.p.) for 16 days (Day 1–16). All compounds were administered 6 h post-MPTP injection to avoid any effect of compounds on the MPTP metabolism in the brain. Motor and non-motor related behavior tests were performed on the following days as described in Fig. 4a in an assessor- and observer-blinded fashion. Pre-training and baseline setup for motor-related behaviors were performed 3 days prior to the injections. Mice were sacrificed and subjected to immunohistochemistry. Mice were housed at the Animal Care Facilities of McLean Hospital under a 12-h light/12-h dark cycle, ambient temperature and humidity. Animals were handled in accordance with McLean Hospital’s Institutional Animal Care and Use Committee (Protocol #: 2015N000002) and followed National Institutes of Health guidelines.
# (§2) Mice were pre-trained on an automated 5-lane rotarod unit (10 rpm, 3 min) for 2 days and the baseline was measured (10 rpm, 90 sec) before the rotarod test (3 days before the MPTP injection or the first rotarod test at week 2). Rotarod measurements were performed using an accelerating protocol, accelerated smoothly from 2 to 30 rpm for 5 min. Time on the rotating rod was measured automatically by placing a trip switch under the floor beneath the rotating drum.
# MPTP-induced male mice [2] = assay: Dopamine ELISA in SN and STR, MPTP-induced mice; type: in vivo, mouse; settings: for DA: individual animals
# Protocol: as §1
# For MPTP-induced mice, the left hemisphere of each group (n = 5) was used for analysis and compared to the vehicle-treated group (VEH). For AAV-αSyn-injected mouse model, the viral vector injected side (left hemisphere; ipsilateral) of each group (n = 3) was compared to the non-injected side (right hemisphere; contralateral).
# [3] = tested on: AAV-αSyn-induced male mice; assay: Rotarod, AAV-αSyn-induced PD model mice; type: in vivo, mouse; settings: αSynWT and αSynA53T mice; CQ 40, 4A7C-301 5 mg/kg/day i.p.
# Source text: Adeno-associated viruses (AAVs) expressing GFP only or αSyn (wild-type or A53T) were kindly provided by Dr. Yoon Seong Kim from the University of Central Florida. Recombinant AAV vectors were produced using modified pAAV-IRES-hrGFP (Agilent) to express wild-type and mutant human αSyn under control of the CMV promoter. Viral particles (AAV2) were produced at the University of Iowa Viral Vector Core according to standard operating procedures (https://medicine.uiowa.edu/vectorcore/). […] AAV vectors were delivered into the substantia nigra unilaterally by stereotaxic surgery.
# as §2
# Sequence of Nurr1-LBD (P43354 360-595 limits assumed, species assumed): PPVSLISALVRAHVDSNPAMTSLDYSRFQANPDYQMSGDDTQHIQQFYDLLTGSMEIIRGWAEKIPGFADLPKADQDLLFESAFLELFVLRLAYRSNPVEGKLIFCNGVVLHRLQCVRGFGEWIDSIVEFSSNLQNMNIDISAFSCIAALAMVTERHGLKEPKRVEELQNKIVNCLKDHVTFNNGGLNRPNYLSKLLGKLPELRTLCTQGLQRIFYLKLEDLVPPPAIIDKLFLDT
smiles,measurement,setting,value
"CCN(CC)CCCC(C)Nc1ccnc2cc(Cl)ccc12 (stereo not drawn) [CQ, chloroquine]",% of Specific binding,Nurr1-LBD; competitor conc. 0.0001 (µM),118.1264% and 84.3678% and 87.5058%
same,% of Specific binding,Nurr1-LBD; competitor conc. 0.001 (µM),105.0129% and 88.1206% and 97.7170%
same,% of Specific binding,Nurr1-LBD; competitor conc. 0.01 (µM),86.0400% and 103.1100% and 99.0600%
same,% of Specific binding,Nurr1-LBD; competitor conc. 0.1 (µM),92.2329% and 89.2060% and 101.4170%
same,% of Specific binding,Nurr1-LBD; competitor conc. 1 (µM),91.1049% and 87.6783% and 85.5188%
same,% of Specific binding,Nurr1-LBD; competitor conc. 10 (µM),73.9055% and 78.9516% and 86.9689%
same,% of Specific binding,Nurr1-LBD; competitor conc. 100 (µM),60.9070% and 71.4020% and 69.8520%
same,% of Specific binding,Nurr1-LBD; competitor conc. 1000 (µM),61.7083% and 49.9850% and 61.0054%
same,% of Specific binding,Nurr1-LBD; competitor conc. 10000 (µM),29.9520% and 33.4512% and 36.5796%
same,% of Specific binding,Nurr1-LBD; competitor conc. 100000 (µM),19.5396% and 23.9835% and 21.7371%
same,% of Specific binding,Nurr1-LBD; competitor conc. 1000000 (µM),14.1307% and 7.3236% and 10.4343%
same,IC50,Nurr1-LBD; competition with [3H]-CQ,1.03 µM and 1 µM
same,MTT reduction (%),N27-A cells; Control,57.8947% and 66.3158% and 61.0526% and 65.2632%
same,MTT reduction (%),N27-A cells; Nurr1 KD,34.0206% and 28.866% and 35.0515% and 27.8351%
same,MTT reduction (%),N27-A cells; Nurr1 OE,79.3814% and 82.4742% and 84.5361% and 87.6289%
same,LDH release (%),"MN9D cells; Fig. S3f, MPP+, Control, CQ 100 µM, 4A7C-301 1 µM",40.5948% and 42.0584% and 38.5456% and 42.2156%
same,LDH release (%),"MN9D cells; Fig. S3f, MPP+, Nurr1 KD, CQ 100 µM, 4A7C-301 1 µM",55.6098% and 56.4684%
same,LDH release (%),"MN9D cells; Fig. S3f, MPP+, Nurr1 OE, CQ 100 µM, 4A7C-301 1 µM",26.1572% and 27.9568% and 27.0629%
same,LDH release (%),"MN9D cells; Fig. S3d, with MPP+, 1 µM",41.5124% and 43.1347% and 42.8643%
same,LDH release (%),"MN9D cells; Fig. S3d, with MPP+, 5 µM",41.2806% and 41.8214% and 41.3965%
same,LDH release (%),"MN9D cells; Fig. S3d, with MPP+, 10 µM",39.6197% and 38.7699% and 40.5081%
same,LDH release (%),"MN9D cells; Fig. S3d, with MPP+, 50 µM",38.5767% and 38.7312% and 38.1518%
same,LDH release (%),"MN9D cells; Fig. S3d, with MPP+, 100 µM",37.1862% and 37.0703% and 38.1905%
same,Nurr1 protein levels (in words),Nurr1 protein,significantly restored
same,Latency to fall,MPTP-induced male mice [1],188.53 s and 158.67 s and 132.1 s and 179.3 s and 127.13 s and 200.87 s and 173.6 s and 164.1 s
same,DA levels in the SN (in words),MPTP-induced male mice [2],did so only in the SN
same,DA levels in the STR (in words),MPTP-induced male mice [2],only in the SN
same,DA,MPTP-induced male mice [2]; Supplementary Figure S10b,49.362 pg/mL and 39.048 pg/mL and 57.173 pg/mL and 55.478 pg/mL and 57.153 pg/mL
same,DA,MPTP-induced male mice [2]; Supplementary Figure S10c,418.063 pg/mL and 471.117 pg/mL and 318.027 pg/mL and 389.411 pg/mL and 268.088 pg/mL
same,"motor deficits, rotarod (latency to fall) (in words)",[3],partial recovery
